Experiments:
Human RORγ = molecular target: T1, Human RORγ (Homo sapiens, UniProt P51449); experiment: Human RORγ luciferase (LUC) reporter assay; format: cell-based; details: for LUC activity relative to compound A: fold difference of EC50 versus compound A
T1 sequence (P51449 1-518): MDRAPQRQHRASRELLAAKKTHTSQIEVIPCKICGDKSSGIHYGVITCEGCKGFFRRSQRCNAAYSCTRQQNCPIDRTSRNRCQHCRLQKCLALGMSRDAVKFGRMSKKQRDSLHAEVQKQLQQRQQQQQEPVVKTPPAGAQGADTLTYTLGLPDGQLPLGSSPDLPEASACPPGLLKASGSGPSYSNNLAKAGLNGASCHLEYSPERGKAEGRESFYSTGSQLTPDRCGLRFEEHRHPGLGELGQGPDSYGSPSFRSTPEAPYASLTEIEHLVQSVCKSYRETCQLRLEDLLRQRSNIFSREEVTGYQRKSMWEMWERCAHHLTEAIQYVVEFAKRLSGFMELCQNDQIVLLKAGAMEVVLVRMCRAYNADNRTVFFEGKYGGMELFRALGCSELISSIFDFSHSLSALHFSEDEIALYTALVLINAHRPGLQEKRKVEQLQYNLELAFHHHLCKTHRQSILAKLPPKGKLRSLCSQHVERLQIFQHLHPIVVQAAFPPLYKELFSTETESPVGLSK
Experimental: Figure 1 The relative efficacy (RE) of CoR peptide recruitment to the RORγ-LBD and LUC activity by inverse agonists. […] Background activity in the absence of a standard inverse agonist is defined as 0% response; and maximum activity induced by a standard inverse agonist at 100μM as 100% response. […] A value of 100% is given to cells without inverse agonist in LUC assay. […] Human RORγ LUC assays were carried out in accordance with the method of Madoux et al.[31] with some modifications and described previously. EC50 was calculated by curve-fitting in GraphPad Prism. Detailed descriptions of synthesis for the compounds are described elsewhere[9],[22].

RORγ-LBD [1] = molecular target: T2, RORγ-LBD (Homo sapiens, UniProt P51449); experiment: FRET-based CoR peptide recruitment assay (dual TR-FRET); format: biochemical; details: for relative efficacy (RE) in CoR recruitment: compared with compound A
T2 construct: the glutathione-S-transferase (GST)-tagged RORγ-LBD produced in Sf9 cells; GST; made in house; host or cells: Sf9 cells
T2 sequence (P51449 269-508 limits assumed): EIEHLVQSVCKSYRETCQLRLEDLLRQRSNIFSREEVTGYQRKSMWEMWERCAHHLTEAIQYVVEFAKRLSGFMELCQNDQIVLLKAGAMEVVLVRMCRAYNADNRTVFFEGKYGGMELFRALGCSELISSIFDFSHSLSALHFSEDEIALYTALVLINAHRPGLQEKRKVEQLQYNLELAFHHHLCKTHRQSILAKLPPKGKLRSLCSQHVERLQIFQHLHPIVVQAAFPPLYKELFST
Experimental: Figure 1 The relative efficacy (RE) of CoR peptide recruitment to the RORγ-LBD and LUC activity by inverse agonists. […] Background activity in the absence of a standard inverse agonist is defined as 0% response; and maximum activity induced by a standard inverse agonist at 100μM as 100% response. […] A value of 100% is given to cells without inverse agonist in LUC assay. […] Detailed methods on plasmid construction, sample preparation, crystallization, structure determination, and FRET and LUC assays are provided in previous publications. […] The purified proteins were crystallized in complex with rockogenin and CoR peptide (ternary complex structures). […] The complex structures were determined by molecular replacement method using the RORγ-LBD apo structures as a search model. Diffraction data of the RORγ-LBD were collected at 21IDF (APS), Chicago, USA. Figures were generated using PyMOL[30].
(§1) For TR-FRET assays, the glutathione-S-transferase (GST)-tagged RORγ-LBD produced in Sf9 cells and peptide solution were incubated with compounds, and the 520/490 TR-FRET ratio was measured. Human RORγ LUC assays were carried out in accordance with the method of Madoux et al.[31] with some modifications and described previously. EC50 was calculated by curve-fitting in GraphPad Prism. Detailed descriptions of synthesis for the compounds are described elsewhere[9],[22].

RORγ-LBD [2] = molecular target: T2, RORγ-LBD; experiment: FRET-based CoA peptide releasing assay (dual TR-FRET); format: biochemical; details: GST-tagged RORγ-LBD, read-out: EC50 release of CoA peptide (FRET)
Experimental: Figure 1 The relative efficacy (RE) of CoR peptide recruitment to the RORγ-LBD and LUC activity by inverse agonists. […] Background activity in the absence of a standard inverse agonist is defined as 0% response; and maximum activity induced by a standard inverse agonist at 100μM as 100% response. […] A value of 100% is given to cells without inverse agonist in LUC assay.
Detailed methods on plasmid construction, sample preparation, crystallization, structure determination, and FRET and LUC assays are provided in previous publications. […] The purified proteins were crystallized in complex with rockogenin and CoR peptide (ternary complex structures). […] The complex structures were determined by molecular replacement method using the RORγ-LBD apo structures as a search model. Diffraction data of the RORγ-LBD were collected at 21IDF (APS), Chicago, USA. Figures were generated using PyMOL[30].
as §1

Th17 cells = system: Th17 cells; parameters: method as in earlier work; details: cited from earlier work
IL-17 release = system: IL-17 release; parameters: method as in PMID 26819660; details: orally administered, inflammatory model mice; cited from earlier work

## COc1ccc(-c2c(-c3nc(CC(=O)NCC4CCOCC4)cs3)cnn2C(C)(C)C)cc1 [compound T]
Human RORγ
  LUC activity relative to compound A: nine times lower activity
Human RORγ; listed as Compound T
  LUC activity relative to compound A: nine-times lower than compound A
Human RORγ; luciferase reporter assay, means ± SE (n = 2–3)
  EC50: 0.44 µM
RORγ-LBD [1]; TR-FRET, GST-tagged RORγ-LBD, compound T n = 1
  EC50: 0.25 µM
RORγ-LBD [1]
  relative efficacy (RE) in CoR recruitment: about half that of compound A
RORγ-LBD [1]; listed as Compound T
  relative efficacy (RE) in CoR recruitment: half the efficacy of compound A
RORγ-LBD [2]
  EC50: 0.5 µM
Th17 cells
  production of IL-17: inhibits the production of IL-17

## CC(=O)N1CC(C(=O)Nc2ccc(C)cc2C)C(c2nnc(C3CC(CC(C)C)C3)n2C2CC2)C1 (stereo not shown) [compound A]
IL-17 release
  IL-17 release: effectively suppressed IL-17 release in a dose-dependent manner

## C[C@@H]1CC[C@@]2(OC1)O[C@H]1C[C@H]3[C@@H]4CC[C@H]5C[C@@H](O)CC[C@]5(C)[C@H]4C[C@@H](O)[C@]3(C)[C@H]1[C@@H]2C [rockogenin]
RORγ-LBD [1]; result in words
  CoR peptide-recruiting activity in dual FRET assay: not detected
